{"source": "ChEMBL document CHEMBL4476870", "about": "“Arf6 inhibitors and methods of synthesis and use thereof” (2017)", "key": {"Mus musculus [1]": {"test_system": "Mus musculus", "experiment": "Inhibition of VEGF-induced retinal permeability in mouse at 500 ng dosed as single intraocular injection followed by Evan blue dye injection 6 hrs post drug dose and measured after 2 hrs", "type": "functional, organism-based"}, "Mus musculus [2]": {"test_system": "Mus musculus", "experiment": "Reduction in LPS-induced acute lung injury in mouse assessed as reduction in number of cells in BALF at 5 mg/kg dosed 2 hrs post LPS challenge", "type": "functional, organism-based"}, "Mus musculus [3]": {"test_system": "Mus musculus", "experiment": "Reduction in LPS-induced acute lung injury in mouse assessed as reduction in protein concentration at 5 mg/kg dosed 2 hrs post LPS challenge", "type": "functional, organism-based"}, "Mus musculus [4]": {"test_system": "Mus musculus", "experiment": "Reduction in oxygen-induced retinopathy in mouse placed in 75% oxygen-environment from day 5 to 12 assessed as reduction in neovascularization at 5 ug dosed via intraocular injection on day 12 and 15 and measured on day 17", "type": "functional, organism-based"}, "Mus musculus [5]": {"test_system": "Mus musculus", "experiment": "Anti-inflammatory activity in mouse model of collagen-induced arthritis assessed as reduction in arthritic index at 10 to 60 mg/kg, BID for 14 days and measured up to 15 days post dose", "type": "functional, organism-based"}, "Mus musculus [6]": {"test_system": "Mus musculus", "experiment": "Reduction in LPS-induced acute lung injury in mouse assessed as reduction in number of cells in BALF at 60 mg/kg dosed 4 hrs post LPS challenge", "type": "functional, organism-based"}, "LN-229": {"test_system": "LN-229", "experiment": "Antiproliferative activity against human LN229 cells assessed as inhibition of cell proliferation at >1 uM by WST8 dye based colorimetric assay", "type": "functional"}, "Mus musculus [7]": {"test_system": "Mus musculus", "experiment": "Reduction in LPS-induced acute lung injury in mouse assessed as reduction in protein concentration at 60 mg/kg dosed 4 hrs post LPS challenge", "type": "functional, organism-based"}, "Mus musculus [8]": {"test_system": "Mus musculus", "experiment": "Inhibition of VEGF-induced retinal permeability in mouse at 50 ng dosed as single intraocular injection followed by Evan blue dye injection 6 hrs post drug dose and measured after 2 hrs", "type": "functional, organism-based"}, "Mus musculus [9]": {"test_system": "Mus musculus", "experiment": "Reduction in LPS-induced acute lung injury in mouse assessed as reduction in protein concentration at 60 mg/kg dosed 3 hrs post LPS challenge", "type": "functional, organism-based"}, "[10]": {"target": "PH and SEC7 domain-containing protein 1 (Mus musculus) (UniProt Q5DTT2)", "sequence (Q5DTT2 whole entry, the tested form may be a part)": "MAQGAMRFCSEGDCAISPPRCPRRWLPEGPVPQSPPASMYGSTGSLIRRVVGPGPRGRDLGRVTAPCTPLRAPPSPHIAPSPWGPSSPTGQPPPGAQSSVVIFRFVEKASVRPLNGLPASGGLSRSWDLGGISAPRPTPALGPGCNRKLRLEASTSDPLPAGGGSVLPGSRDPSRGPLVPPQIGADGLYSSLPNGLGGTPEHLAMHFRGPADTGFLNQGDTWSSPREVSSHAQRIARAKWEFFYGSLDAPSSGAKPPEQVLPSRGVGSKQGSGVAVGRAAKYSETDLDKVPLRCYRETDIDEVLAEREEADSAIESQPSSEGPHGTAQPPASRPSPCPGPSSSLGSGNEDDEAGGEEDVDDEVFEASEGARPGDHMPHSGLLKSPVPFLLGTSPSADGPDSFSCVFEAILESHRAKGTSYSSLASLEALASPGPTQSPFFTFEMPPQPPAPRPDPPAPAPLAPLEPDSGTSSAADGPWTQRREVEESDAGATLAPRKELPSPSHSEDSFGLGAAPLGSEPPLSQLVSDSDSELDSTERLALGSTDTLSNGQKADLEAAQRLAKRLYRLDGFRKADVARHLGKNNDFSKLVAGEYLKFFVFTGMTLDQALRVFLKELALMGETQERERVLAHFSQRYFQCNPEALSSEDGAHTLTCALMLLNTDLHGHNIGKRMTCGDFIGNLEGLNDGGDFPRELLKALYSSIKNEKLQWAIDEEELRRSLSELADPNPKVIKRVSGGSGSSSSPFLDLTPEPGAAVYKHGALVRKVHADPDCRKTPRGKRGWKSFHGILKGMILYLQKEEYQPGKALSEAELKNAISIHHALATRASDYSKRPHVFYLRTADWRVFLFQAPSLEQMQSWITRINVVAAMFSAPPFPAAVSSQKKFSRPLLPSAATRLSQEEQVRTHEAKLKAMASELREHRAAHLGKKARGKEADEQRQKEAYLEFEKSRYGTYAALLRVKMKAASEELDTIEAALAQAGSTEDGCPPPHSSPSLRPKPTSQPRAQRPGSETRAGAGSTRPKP", "experiment": "Inhibition of Arf6 activation in mouse NIH/3T3 cells assessed as effect on GTP-bound Arf6 incubated for 4 hrs immobilized GST-tagged Gga3 by based pull down assay", "type": "cell-based"}, "Mus musculus [11]": {"test_system": "Mus musculus", "experiment": "Reduction in LPS-induced acute lung injury in mouse assessed as reduction in number of cells in BALF at 60 mg/kg dosed 3 hrs post LPS challenge", "type": "functional, organism-based"}, "Homo sapiens [12]": {"species_on_record": "Homo sapiens", "experiment": "Antiproliferative activity against human LOX cells assessed as inhibition of cell proliferation at >1 uM by WST8 dye based colorimetric assay", "type": "functional"}, "Mus musculus [13]": {"test_system": "Mus musculus", "experiment": "Inhibition of choroidal neovascularization in mouse with laser-induced Bruch's membrane disruption dosed on day 0 and 7 and measured on day 14", "type": "functional, organism-based"}, "[14]": {"experiment": "Antiinvasive activity against human LOX cells assessed as inhibition of 5% FBS-induced cell invasion at 1 uM by Matrigel based cell invasion assay", "type": "functional"}, "Rattus norvegicus": {"test_system": "Rattus norvegicus", "experiment": "Inhibition of VEGF-induced retinal permeability in rat assessed as reduction in vascular leak at 60 mg/kg, ip dosed 1 hr before VEGF injection on day1 followed by Evan blue dye injection on day2 and measured on day 3", "type": "functional, organism-based"}, "Mus musculus [15]": {"test_system": "Mus musculus", "experiment": "Inhibition of VEGF-induced retinal permeability in mouse at 5 ug dosed as single intraocular injection followed by Evan blue dye injection 6 hrs post drug dose and measured after 2 hrs", "type": "functional, organism-based"}, "Mus musculus [16]": {"test_system": "Mus musculus", "experiment": "Inhibition of choroidal neovascularization in mouse with laser-induced Bruch's membrane disruption at 5 ug dosed on day 0 and 7 and measured on day 14", "type": "functional, organism-based"}, "Influenza A virus": {"test_system": "Influenza A virus", "experiment": "Antiviral activity against Influenza A virus (H1N1) infected in mouse assessed as reduction in virus-infection induced mortality by measuring mouse survival at 20 mg/kg, ip qd for 5 days dosed 4 hrs before virus infection", "type": "functional, organism-based"}, "Homo sapiens [17]": {"species_on_record": "Homo sapiens", "experiment": "Antiinvasive activity against human LOX cells assessed as inhibition of 5% FBS-induced cell invasion at 30 uM by Matrigel based cell invasion assay", "type": "functional"}}, "note": "The source made the active and inactive calls. No cut-off for these calls is given here.", "data": [{"smiles": "COc1ccc(-c2c(Cc3ccccc3)nn3c(=O)cc(C)[nH]c23)cc1", "values": [{"measurement": "inhibition", "setting": "Mus musculus [1]", "value": "Active"}]}, {"smiles": "C[C@@H]1C[C@H]2[C@@H]3CCC4=CC(=O)C=C[C@]4(C)[C@@]3(F)[C@@H](O)C[C@]2(C)[C@@]1(O)C(=O)CO", "values": [{"measurement": "inhibition", "setting": "Mus musculus [2]", "value": "Active"}, {"measurement": "inhibition", "setting": "Mus musculus [3]", "value": "Active"}]}, {"smiles": "O=c1cc(-c2cccc(Oc3ccccc3)c2)[nH]c2c(-c3ccc(Cl)c(Cl)c3)c(C(F)(F)F)nn12", "values": [{"measurement": "inhibition", "setting": "Mus musculus [4]", "value": "Active"}, {"measurement": "Activity", "setting": "Mus musculus [5]", "value": "Dose-dependent effect"}]}, {"smiles": "O=c1cc(-c2ccc([N+](=O)[O-])cc2)[nH]c2c(-c3ccc(Cl)cc3)c(Cc3ccccc3)nn12", "values": [{"measurement": "inhibition", "setting": "Mus musculus [6]", "value": "Active"}, {"measurement": "inhibition", "setting": "LN-229", "value": "Active"}, {"measurement": "inhibition", "setting": "Mus musculus [7]", "value": "Active"}, {"measurement": "inhibition", "setting": "Mus musculus [8]", "value": "Active"}, {"measurement": "inhibition", "setting": "Mus musculus [9]", "value": "Active"}, {"measurement": "inhibition", "setting": "[10]", "value": "Active"}, {"measurement": "inhibition", "setting": "Mus musculus [11]", "value": "Active"}, {"measurement": "inhibition", "setting": "Homo sapiens [12]", "value": "Active"}, {"measurement": "inhibition", "setting": "Mus musculus [13]", "value": "Dose-dependent effect"}, {"measurement": "inhibition", "setting": "Mus musculus [4]", "value": "Active"}, {"measurement": "inhibition at 1 µM", "setting": "[14]", "value": 100, "unit": "%"}, {"measurement": "inhibition", "setting": "Rattus norvegicus", "value": "Active"}, {"measurement": "inhibition", "setting": "Mus musculus [1]", "value": "Active"}]}, {"smiles": "CN(C)c1ccc(/C=C2/C(=O)Nc3ccccc32)cc1", "values": [{"measurement": "inhibition", "setting": "Mus musculus [15]", "value": "inactive"}, {"measurement": "inhibition", "setting": "Mus musculus [16]", "value": "Active"}, {"measurement": "inhibition", "setting": "Mus musculus [4]", "value": "Active"}]}, {"smiles": "O=c1cc(Cc2ccccc2)[nH]c2c(-c3ccc(Cl)cc3)c(C(F)(F)F)nn12", "values": [{"measurement": "Activity", "setting": "Influenza A virus", "value": "Active"}, {"measurement": "inhibition", "setting": "Mus musculus [1]", "value": "Active"}]}, {"smiles": "COc1nc(-c2ccc3c(c2)OCO3)n(-c2ccc(NC(=O)CSc3ccccc3)cc2)n1", "values": [{"measurement": "inhibition", "setting": "Homo sapiens [17]", "value": "Active"}]}]}
